Measurements reported in US7820817B2, “Modulators of muscarinic receptors” (Vertex Pharmaceuticals Incorporated, priority 2004, dated 2010).

Tested on: at least one muscarinic receptor, M1, M2, M3, M4
Assay: Muscarinic modulation activity (Table 3)
Format: cell-based
Set-up: key: +++: exhibited muscarinic modulation activity for at least one muscarinic receptor, M1, M2, M3, M4, at a concentration of less than 5 μM; ++: exhibited muscarinic modulation activity for at least one muscarinic receptor, M1, M2, M3, M4, at a concentration of between 30 μM and 5 μM; +: exhibited muscarinic modulation activity for at least one muscarinic receptor, M1, M2, M3, M4, at a concentration of greater than 30 μM; −: were not assayed or did not exhibit muscarinic modulation activity for at least one muscarinic receptor, M1, M2, M3, M4, at the concentration at which the assay was performed
Details: concentration at which modulation of at least one muscarinic receptor, M1, M2, M3, M4, was exhibited; CHO cells
Procedure: CHO cells expressing muscarinic receptors (M1 to M5) are grown as monolayers in tissue culture flasks at 37° C. in a humidified atmosphere containing 5% CO2 and passaged every 3-5 days. The growth media is Dulbecco's modified eagles medium (DMEM, Gibco Cat#12430-054), containing 25 mM Hepes and supplemented with Fetal Bovine Serum (Hyclone, cat#SH30071.03), 0.1 mM of MEM non-essential amino acids (GIBCO, Cat#11140-050), 1 mM MEM Sodium Pyruvate (GIBCO Cat#11360-070) and 100 units/ml of Penicillin G and 100 μg/ml of Streptomycin (GIBCO Cat#15140-122). The recombinant muscarinic receptor cell lines are grown under antibiotic pressure with media containing 25 μg/ml zeocin and 500 μg/ml G418 (M1-CHO), 4 μg/ml puromycin, 50 μg/ml zeocin and 2.5 μg/ml blasticidin (M2 and M4-CHO) or 50 μg/ml zeocin and 4 μg/ml puromycin (M3 and M5-CHO).
Cells are harvested at 80-90% confluence using Versene (GIBCO Cat#15040-066), collected by centrifugation and seeded 18-24 hrs prior to running the calcium assay at a density of 5,000-10,000 cells/well in […], clear-bottomed 384-well plates (BD Biocoat, poly-D-lysine, Cat#356663). The day of the experiment, the cells are washed with a plate washer (Bioteck Instruments, ELX 405) using bath1 buffer (140-mM NaCl, 4.5-mM KCl, 2-mM CaCl2, 1-mM MgCl2, 10-mM Hepes-Na, 10-mM Glucose, pH 7.4, with NaOH) containing 1 mM Probenecid. Next, the calcium dye Fluo-3 (25 μl/well of Fluo-3 AM at 4 μM, Molecular Probes F-1241, in Bath 1 buffer containing 1 mM Probenecid) is added to the 25 μl of Bath 1 remaining in each well after the plate wash and the dye is loaded at 37° C. in the tissue culture incubator for 60-90 min. The fluorescent dye is removed using the plate washer with Bath 1 containing 1 mM Probenecid, leaving 25 μl/well of this solution after the wash. Alternatively, cells can be loaded with the calcium indicator from Molecular Devices (Calcium 3 Assay Reagents, Cat #R7181) adding 5 μl of a 5× solution dye in Bath 1 containing 1 mM Probenecid (10 ml per dye flask cat#R7182 to generate a solution […]) to 20 μl of the same buffer. After loading for 60 min. the experiment can be run without having to remove the dye.
Compounds are prepared at a 2× fold concentration in a 96-well plate (round bottom, Costar Corning cat#3656), by reconstituting the pre-spotted compounds in bath 1 containing 1 mM probenecid. The final concentration DMSO is 0.5%, and the amount of DMSO is normalized across the assay plate. To determine an agonist action of the compounds on muscarinic receptors, the reconstituted compounds are added (25 μl compound/well) to the cell assay plate (containing 25 μl/well) using the multi-channel robotic system of the FLIPR 3 Instrument (Molecular Devices, Sunnyvale, Calif.). To determine a functional inhibitory action of the compounds on muscarinic receptors, the reconstituted compounds are added (25 μl compound/well) to the assay plate and pre-incubated for 15 min prior to adding 25 μl of Carbachol at 3× the EC80 for each muscarinic subtype. Alternatively, the compounds can be co-applied simultaneously with the agonist. In both assay modes, the fluorescence is recorded for 60 sec (excitation wavelength is […] and emission wavelength 540 nm) using the FLIPR 3 instrument.
The potency, efficacy and selectivity of the muscarinic compounds were evaluated by screening the compound activity across the whole family (M1 to M5 cells).
CHO cells expressing muscarinic receptors (M1 to M5) and containing a gene reporter system β-Lactamase) with transcriptional control mediated by calcium release (NFAT activation). See Zlokarnik, G; Negulescu, P. A.; Knapp, T. E.; Mere, L; Burres, N; Feng, L; Whitney, M; Roemer, K; Tsien, R. Y. Quantitation of transcription and clonal selection of single living cells with β-lactamase as reporter. Science, 1998 Jan. 2, 279(5347):84-8. The cells are grown as monolayers in tissue culture flasks at 37° C. in a humidified atmosphere containing 5% CO2 and passaged every 3-5 days. […]

“3-[4-(3-cyanopyrazin-2-yl)piperazin-1-yl]-8-azabicyclo[3.2.1]octane-8-carboxylic acid ethyl ester [Compound 45]” was tested, and the “ACTIVITY (muscarinic modulation activity)” value (shortened to “ACTIVITY”) was “+ (exhibited muscarinic modulation activity for at least one muscarinic receptor, M1, M2, M3, M4, at a concentration of greater than 30 μM)”.

O=[N+]([O-])c1cccnc1N1CCN(CC2CC3C=CC2C3)CC1 (centres unmarked) [Compound 1, 1-(5-bicyclo[2.2.1]hept-2-enylmethyl)-4-(3-nitro-2-pyridyl)-piperazine] was tested, and the “ACTIVITY” value was “++ (exhibited muscarinic modulation activity for at least one muscarinic receptor, M1, M2, M3, M4, at a concentration of between 30 μM and 5 μM)”.

With N#Cc1cccnc1N1CCN(C2C3CC4CC(C3)CC2C4)CC1 (centres unmarked) [Compound 2, 2-[4-(2-adamantyl)piperazin-1-yl]nicotinonitrile] the “ACTIVITY” value was “++ (exhibited muscarinic modulation activity for at least one muscarinic receptor, M1, M2, M3, M4, at a concentration of between 30 μM and 5 μM)”.

With N#Cc1ccc(C(F)(F)F)nc1N1CCN(C2CC3CCC2C3)CC1 (centres unmarked) [Compound 3, 2-(4-norbornan-2-ylpiperazin-1-yl)-6-(trifluoromethyl)nicotinonitrile] the “ACTIVITY” value was “+ (exhibited muscarinic modulation activity for at least one muscarinic receptor, M1, M2, M3, M4, at a concentration of greater than 30 μM)”.

For COc1cc(OC)nc(C2CCN(CC3CC4C=CC3C4)CC2)n1 (centres unmarked) [Compound 4, 2-[1-(5-bicyclo[2.2.1]hept-2-enylmethyl)-4-piperidyl]-4,6-dimethoxy-pyrimidine], the “ACTIVITY” value was “+++ (exhibited muscarinic modulation activity for at least one muscarinic receptor, M1, M2, M3, M4, at a concentration of less than 5 μM)”.

In the case of O=[N+]([O-])c1cccnc1N1CCN(C2CC3CCC2C3)CC1 (centres unmarked) [Compound 5, 1-(3-nitro-2-pyridyl)-4-norbornan-2-yl-piperazine], the “ACTIVITY” value is reported as “+ (exhibited muscarinic modulation activity for at least one muscarinic receptor, M1, M2, M3, M4, at a concentration of greater than 30 μM)”.

With NC(=O)c1cccnc1N1CCN(CC2CC3C=CC2C3)CC1 (centres unmarked) [Compound 6, 2-[4-(5-bicyclo[2.2.1]hept-2-enylmethyl)piperazin-1-yl]nicotinamide] the “ACTIVITY” value was “−”.

In the case of Clc1cccnc1N1CCN(C2CC3CCC2C3)CC1 (centres unmarked) [Compound 7, 1-(3-chloro-2-pyridyl)-4-norbornan-2-yl-piperazine], the “ACTIVITY” value is reported as “+++ (exhibited muscarinic modulation activity for at least one muscarinic receptor, M1, M2, M3, M4, at a concentration of less than 5 μM)”.

N#Cc1ccc(C(F)(F)F)nc1N1CCN(CC2CC3CCC2C3)CC1 (centres unmarked) [Compound 8, 2-[4-(norbornan-2-ylmethyl)piperazin-1-yl]-6-(trifluoromethyl)nicotinonitrile] was tested, and the “ACTIVITY” value was “−”.

For c1ccc2c(c1)nnn2C1CCN(C2CC3CCC(C3)C2)CC1 (centres unmarked) [Compound 9, 1-[1-(3-bicyclo[3.2.1]octyl)-4-piperidyl]-1H-benzotriazole], the “ACTIVITY” value was “−”.

For NC(=O)c1cccnc1N1CCN(C2CC3CCC2C3)CC1 (centres unmarked) [Compound 10, 2-(4-norbornan-2-ylpiperazin-1-yl)nicotinamide], the “ACTIVITY” value was “−”.

In the case of CCOC(=O)N1C2CCC1CC(N1CCN(c3nnc(-c4ccccc4)cc3C#N)CC1)C2 (centres unmarked) [Compound 11, 3-[4-(4-cyano-6-phenyl-pyridazin-3-yl)piperazin-1-yl]-8-azabicyclo[3.2.1]octane-8-carboxylic acid ethyl ester], the “ACTIVITY” value is reported as “+ (exhibited muscarinic modulation activity for at least one muscarinic receptor, M1, M2, M3, M4, at a concentration of greater than 30 μM)”.

In the case of CCOC(=O)N1C2CCC1CC(N1CCN(c3ncccc3C#N)CC1)C2 (centres unmarked) [Compound 12, 3-[4-(3-cyano-2-pyridyl)piperazin-1-yl]-8-azabicyclo[3.2.1]octane-8-carboxylic acid ethyl ester], the “ACTIVITY” value is reported as “+++ (exhibited muscarinic modulation activity for at least one muscarinic receptor, M1, M2, M3, M4, at a concentration of less than 5 μM)”.

N#Cc1ccc(N2CCN(CC3CC4C=CC3C4)CC2)nc1 (centres unmarked) [Compound 13, 6-[4-(5-bicyclo[2.2.1]hept-2-enylmethyl)piperazin-1-yl]nicotinonitrile] was tested, and the “ACTIVITY” value was “+++ (exhibited muscarinic modulation activity for at least one muscarinic receptor, M1, M2, M3, M4, at a concentration of less than 5 μM)”.

For NC(=O)c1ccc(N2CCN(CC3CC4CCC3C4)CC2)nc1 (centres unmarked) [Compound 14, 6-[4-(norbornan-2-ylmethyl)piperazin-1-yl]nicotinamide], the “ACTIVITY” value was “−”.

In the case of Cc1cccc(N2CCN(CC3CC4C=CC3C4)CC2)n1 (centres unmarked) [Compound 15, 1-(5-bicyclo[2.2.1]hept-2-enylmethyl)-4-(6-methyl-2-pyridyl)-piperazine], the “ACTIVITY” value is reported as “++ (exhibited muscarinic modulation activity for at least one muscarinic receptor, M1, M2, M3, M4, at a concentration of between 30 μM and 5 μM)”.

With Cc1cnc(C)c(N2CCN(CC3CC4C=CC3C4)CC2)n1 (centres unmarked) [Compound 16, 3-[4-(5-bicyclo[2.2.1]hept-2-enylmethyl)piperazin-1-yl]-2,5-dimethyl-pyrazine] the “ACTIVITY” value was “+++ (exhibited muscarinic modulation activity for at least one muscarinic receptor, M1, M2, M3, M4, at a concentration of less than 5 μM)”.

With Cc1nccnc1N1CCN(CC2CC3C=CC2C3)CC1 (centres unmarked) [Compound 17, 2-[4-(5-bicyclo[2.2.1]hept-2-enylmethyl)piperazin-1-yl]-3-methyl-pyrazine] the “ACTIVITY” value was “+++ (exhibited muscarinic modulation activity for at least one muscarinic receptor, M1, M2, M3, M4, at a concentration of less than 5 μM)”.

In the case of c1cc(N2CCN(C3CC4CCC3C4)CC2)ccn1 (centres unmarked) [Compound 18, 1-norbornan-2-yl-4-(4-pyridyl)piperazine], the “ACTIVITY” value is reported as “++ (exhibited muscarinic modulation activity for at least one muscarinic receptor, M1, M2, M3, M4, at a concentration of between 30 μM and 5 μM)”.

For N#Cc1ccc(N2CCN(C3CC4CCC3C4)CC2)nc1 (centres unmarked) [Compound 19, 6-(4-norbornan-2-ylpiperazin-1-yl)nicotinonitrile], the “ACTIVITY” value was “++ (exhibited muscarinic modulation activity for at least one muscarinic receptor, M1, M2, M3, M4, at a concentration of between 30 μM and 5 μM)”.

With Cc1cccnc1N1CCN(CC2CC3C=CC2C3)CC1 (centres unmarked) [Compound 20, 2-[4-(5-bicyclo[2.2.1]hept-2-enylmethyl)piperazin-1-yl]-3-methyl-pyridine] the “ACTIVITY” value was “+++ (exhibited muscarinic modulation activity for at least one muscarinic receptor, M1, M2, M3, M4, at a concentration of less than 5 μM)”.

Clc1cccc(N2CCN(CC3CC4C=CC3C4)CC2)n1 (centres unmarked) [Compound 21, 1-(5-bicyclo[2.2.1]hept-2-enylmethyl)-4-(6-chloro-2-pyridyl)-piperazine] was tested, and the “ACTIVITY” value was “−”.

For CCc1cnc(N2CCN(CC3CC4CCC3C4)CC2)nc1 (centres unmarked) [Compound 22, 5-ethyl-2-[4-(norbornan-2-ylmethyl)piperazin-1-yl]-pyrimidine], the “ACTIVITY” value was “−”.
